The source of these data is paper PMC10835127, “Viruses traverse the human proteome through peptide interfaces that can be biomimetically leveraged for drug discovery” (Proceedings of the National Academy of Sciences of the …, 2024).

A short description of data set [1]: Microsomal stability, mouse liver microsomes. The following applies: male, CD-1, mouse, pH 7.4; murine liver microsomes; read-out: CLint mLM. It is filed as in vitro ADME. As for the experimental part: (§1) Tested compounds (1 μM) were incubated with pooled human liver microsomes (Xenotech; pooled male and female) and pooled mouse liver microsomes (Xenotech; male CD-1 mice).
(§2) Microsomes (final protein concentrations of 0.25 and 0.5 mg/ml, 0.1 M phosphate buffer pH 7.4) containing tested compound (final substrate concentration 1 μM; final DMSO concentration 0.25 %) were preincubated at 37 °C prior to the addition of NADPH (final concentration 1 mM) to initiate the reaction. The final incubation volume was 200 μl. 3 species-specific control compounds were included with each species. At 5 time points (0, 5, 10, 20, and 40 min), reactions were stopped by transferring 50 μl of the incubation mixture into 0.5 μM carbamazepine in acetonitrile. Tested compound concentrations were analyzed by LC-MS/MS and the resulting data were used to determine the half-life and intrinsic clearance of the compound in each

The nature of data set [2]: Microsomal stability, human liver microsomes. The following applies: both sexes, pH 7.4, read-out: CLint hLM. It is filed as in vitro ADME. On the procedure: as §1, §2
Data set [3] in a line: Cryopreserved hepatocyte stability, mouse. The data set is classed as in vitro ADME. The following applies: cryopreserved hepatocytes, murine hepatocytes, read-out: CLint mHep. On the procedure:
(§3) Cryopreserved hepatocyte stability
(§4) Tested compounds (1 μM) were incubated with human cryopreserved hepatocytes (pool of 5) (IVT Celsis) and mouse cryopreserved hepatocytes (IVT Celsis). Hepatocytes (1, 0.5 or 0.25 x10^6 cells/mL, Williams’ Medium E (WME) with 4 mM L-glutamine and 2 mM magnesium sulphate) containing tested compound (final substrate concentration 1 μM; final DMSO concentration 0.25 %) were preincubated at 37 °C. The final incubation volume was 500 μl. 3 species-specific control compounds were included with each species. At 7 time points (0, 10, 20, 40, 60, 90, and 120 min), reactions were stopped by transferring 50 μl of the incubation mixture into 0.5 μM carbamazepine in cold acetonitrile. Tested compound concentrations were analyzed by LC-MS/MS and the resulting data were used to determine the half-life and intrinsic clearance of the compound in each species. […]

The nature of a further data set: Kinetic solubility. The data set is classed as physicochemical. The following applies: PBS pH 7.4 buffer, pH 7.4, aqueous buffer, kinetic from dmso stock. As for the experimental part:
10 mM DMSO Stock solutions of tested compounds were distributed into filtration plate (Multiscreen Durapore 0.45µm) containing PBS pH 7.4 buffer to a final maximum concentration of 130 μM (1.3 % DMSO/buffer). Solutions or suspensions were shaken for 30 min at room temperature. The samples were filtered under vacuum into a collection plate and diluted 50 % with ACN for UV analysis. Quantification was performed against a Reference plate containing the same tested compounds fully solubilized in ACN/PBS buffer 1:1. Reference and Sample plates were analyzed by UPLC/UV-MS using a generic UPLC method. […]

For a further data set, the system named is Dengue virus. The following applies: in vitro; cited from earlier work.
Another data set is described as follows: PK parameters in mice. It is filed as in vivo, male Swiss (CD-1) mice. Particulars: male, Swiss (CD-1), plasma, mouse; for half-life: read-out: T1/2 iv (converted). On the procedure:
PK parameters and tissue distribution in mice
The pharmacokinetic profiles of the tested compounds were evaluated in male Swiss (CD-1) mice around 5-6 weeks old (3 animals per sampling time). […]
0.2 % Tween 80 in water. Blood samples were collected (0.25 mL) from the sinus retro-orbital […]
24 hr for p.o. route. The blood samples were immediately centrifuged at 2500 rpm at +4 °C, and the plasma was stored at −80 °C. 50 μL of plasma sample was taken and 150 μL of acetonitrile was added. After protein precipitation, analysis of the molecule was performed using LC-MS/MS to determine plasma compound concentration. For liver and lung collection, 3 animals per group were involved and sampled after 2 hr and 24 hr upon 20 mg/kg p.o. administration. Animals were perfused with around 10 mL of saline solution directly into the heart to extract the maximal blood sample from the liver and the lung. Animals were then sacrificed by cervical dislocation and liver

The nature of data set [4]: Plasma protein binding by equilibrium dialysis, murine. It is filed as in vitro ADME. The following applies: mouse, read-out: PPB (% bound). As for the experimental part: The free and bound fractions of the tested compounds in mouse and human plasma were determined by equilibrium dialysis using a 96-well Teflon dialysis unit (HTDialysis plate complete unit, HT Dialysis, USA). The HTDialysis plate complete unit consists of a 96-well plate with wells vertically bisected by a semipermeable membrane (membranes strips 12 to 14 kDa) creating two chambers. A 125 μL aliquot of plasma containing tested compound at 10 μM was placed on one side and 125 μL of Dulbecco‘s phosphate buffered saline (D-PBS) on the other. The plate was incubated at 37 °C for 6 hr under gentle agitation. Then, samples from both plasma and buffer compartment were analyzed by a LC-MS/MS method to measure the free fraction and the bound fraction to the plasma proteins. […]

Data set [5] has as its system influenza A H1N1 virus. Briefly: microbe, parasite or virus in culture. Particulars: H1N1, A549, read-out: Neuraminidase activity assay IC50.
Data set [6] in a line: Cryopreserved hepatocyte stability, human. It is filed as in vitro ADME. Particulars: cryopreserved hepatocytes, read-out: CLint hHep. As for the experimental part: as §3, §4
In a further data set the test system is HIV1 strain NL4-3. It is filed as cell-based. Particulars: normalized mean of HIV1 replication readout.
The test system of the next data set is EBV. Particulars: normalized mean of EBV replication readout.
The target in the next data set is T1, MiNT (Homo sapiens, UniProt P0C7P0).
T1 construct: made in house; host or cells: E. coli
T1 sequence (P0C7P0 15-127): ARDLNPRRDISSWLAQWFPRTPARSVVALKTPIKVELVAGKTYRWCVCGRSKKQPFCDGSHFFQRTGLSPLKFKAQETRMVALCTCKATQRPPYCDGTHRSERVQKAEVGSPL
Briefly: In vitro NEET [2Fe-2S] cluster release, MiNT. It is filed as biochemical. The following applies: recombinant MiNT, 37 °C, absorbance 460 nm. As for the experimental part:
(§5) MitoNEET ([60]) and NAF-1 ([61]) cytosolic domains and MiNT ([62]) were purified from E. coli as previously published. Experiments were performed in 96-well plates at 37 °C with […] of Fe-S cluster in a buffer composed of 50 mM Tris-HCl pH 7 and 100 mM NaCl. dEF3122 was dissolved in dimethyl sulfoxide (DMSO) at 10 mM. CPEP31 was dissolved in PBS at 10 mM. After 20 min of incubation of the protein with the molecule, NEET cluster release was followed by measuring the absorbance at 460 and 800 nm over time using a plate reader (SpectraMax ID3). The absorbance at 460 nm was corrected for the variation of the baseline (absorbance at 800 nm) over time and normalized at 1 at the beginning of the kinetics.

The next data set addresses T2, NAF-1 (Homo sapiens, UniProt Q8N5K1).
T2 construct: MitoNEET ([60]) and NAF-1 ([61]) cytosolic domains and MiNT ([62]) were purified from E. coli as previously published; made in house; host or cells: E. coli
T2 sequence (Q8N5K1 61-135 limits assumed): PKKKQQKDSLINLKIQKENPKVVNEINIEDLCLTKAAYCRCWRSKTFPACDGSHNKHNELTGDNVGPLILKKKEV
The experiment in a line: In vitro NEET [2Fe-2S] cluster release, NAF-1. Particulars: recombinant NAF-1, 37 °C, absorbance 460 nm. The data set is classed as biochemical. On the procedure: as §5

A further data set deals with T3, MitoNEET (Homo sapiens, UniProt Q9NZ45).
T3 construct: MitoNEET ([60]) and NAF-1 ([61]) cytosolic domains and MiNT ([62]) were purified from E. coli as previously published; made in house; host or cells: E. coli
T3 sequence (Q9NZ45 32-108 limits assumed): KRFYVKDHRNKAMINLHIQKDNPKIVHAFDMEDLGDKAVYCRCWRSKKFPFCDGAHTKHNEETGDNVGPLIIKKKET
The experiment in a line: In vitro NEET [2Fe-2S] cluster release, MitoNEET. It is filed as biochemical. Particulars: recombinant MitoNEET, 37 °C, absorbance 460 nm. On the procedure: as §5

The test system of data set [7] is F. novicida (strain U112). The data set is classed as cell-based. The following applies: normalized area under the curve.
A further data set has as its system HCV replicon. It is filed as cell-based. The following applies: normalized mean of HCV replicon readout.
Assay in data set [8]: not given
This is another data set of the same source.

Data set [9] relates to influenza A H1N1 virus. The following applies: 48 hr post-treatment, A549.

Values after ≈ are worked out from the molar mass of the structure shown. Read-outs that look alike come from different tables or passages of the source. No end group written: not given here. Bounds are passed on as bounds.

Consider `COc1ccc(C(=O)Nc2sc3c(c2C(=O)O)CCC(C)(C)C3)cc1OC` [dEF2788], for which the microsomal CLint at 1 µM is 14 µL/min/mg in data set [1] and less than 14 µL/min/mg in data set [2]. The hepatocyte CLint at 1 µM in data set [3] came to 116 µL/min/1e6 cells; in data set [6] it was 31 µL/min/1e6 cells. Besides, the kinetic solubility at 30 min in “Kinetic solubility” amounted to 104 µM (≈ 40.5 µg/mL). Besides, the “activity against Dengue virus replication” value in the data set on Dengue virus was “active in vitro against Dengue virus replication”. Moreover, the half-life in the data set “PK parameters in mice” (iv 0.5 mg/kg) was 0.8 h. The Cmax in the data set “PK parameters in mice” (po 5 mg/kg (dose for AUC)) worked out at 71 ng/mL. Moreover, the bioavailability in the data set “PK parameters in mice” (po 5 mg/kg, iv 0.5 mg/kg) is 26%. Moreover, in data set [4], the fraction unbound at 6 h, 10 µM is less than 0.01. Moreover, the IC50 with influenza A H1N1 virus [5] amounted to 50 nM.

In the case of `O=C(Nc1scc(C2CCc3ccccc3C2)c1C(=O)O)c1ccccc1` (racemic) [dEF2905], in data set [1], the microsomal CLint at 1 µM stood at 29 µL/min/mg. In addition, the hepatocyte CLint at 1 µM in data set [3] is less than 5 µL/min/1e6 cells; in [6], 65 µL/min/1e6 cells. In addition, in “Kinetic solubility”, the solubility (kinetic) at 30 min is 48 µM (≈ 18.1 µg/mL). Further, the half-life in “PK parameters in mice” (iv 0.25 mg/kg) is 3.8 h. The molecule also came in with a Cmax in “PK parameters in mice” (po 2 mg/kg (dose for AUC)) of 1140 ng/mL. The bioavailability in the data set “PK parameters in mice” (po 2 mg/kg, iv 0.25 mg/kg) was 33%. Moreover, the fraction unbound at 6 h, 10 µM in [4] is 0.001. In addition, the IC50 in the data set on influenza A H1N1 virus [5] amounted to 18 nM.

In the case of EVVLFLLNVF [CPEP31], the CC50 is more than 100000 nM. Moreover, the “HIV1 Norm MEAN” value in the data set with HIV1 strain NL4-3 is 8.9. Besides, the “EBV Norm MEAN” value in the data set on EBV was found to be 0.8028. Moreover, the “interaction by [2Fe-2S] cluster release assay” value (from here on “interaction”) at MiNT is on record as “Interactions were validated”. For the same molecule, the “interaction” value on NAF-1 is reported as “Interactions were validated”. In addition, the “interaction” value at MitoNEET was “Interactions were validated”. Moreover, the “Francisella novicida Norm AUC” value in [7] is on record as 0.6912. For the same molecule, the “HCV Norm MEAN” value with HCV replicon came to 0.4448. Moreover, the selectivity ratio in [8] is more than 12. The “Neuraminidase activity normalized to vehicle” value in the data set on influenza A H1N1 virus [9] (200 µM peptide) is 0,0494. Further, the “Neuraminidase activity normalized to vehicle” value in the data set on influenza A H1N1 virus [9] (0,823 µM peptide) is reported as 0,7352. Also, in the data set with influenza A H1N1 virus [9] (22,2 µM peptide), the “Neuraminidase activity normalized to vehicle” value is recorded as 0,2851. In addition, the “Neuraminidase activity normalized to vehicle” value in the data set with influenza A H1N1 virus [9] (2,4691 µM peptide) was 0,951. Further, in the data set on influenza A H1N1 virus [9] (7,4074 µM peptide), the “Neuraminidase activity normalized to vehicle” value was 0,7335. Further, the “Neuraminidase activity normalized to vehicle” value with influenza A H1N1 virus [9] (66,6667 µM peptide) is recorded as 0,114.
